The experiment addresses Thrombin (Homo sapiens, UniProt P00734). Nature of the experiment: Thrombin cleavage of Z-Gly-Pro-Arg-p-phenylenediamine, photometric detection by oxidative coupling with a-naphthol. Type of experiment: biochemical. As to conditions: pH 8; buffer as for fluorescence measurement + 2% Triton X100; substrate cleavage by thrombin. How it is done: Buffer, substrate and fibrinogen were placed in a 96-well microtiter plate. The enzyme was injected with the injector attached to the TECAN reader. The experimental conditions are set out in the following information. • Substrate conc. Z-Gly-Pro-Arg-aminomethylcoumarin 10 mM in DMSO • Substrate dil. Z-Gly-Pro-Arg-aminomethylcoumarin 1 mM in DMSO • Test buffer 50 mM Tris, 250 mM NaCl, 0.1% PEG6000, pH 8.0 • Haemocomplettan 100 mg/ml dist. water≅44 mg/ml of fibrinogen • Enzyme Solution 1 U/ml in 10 mM HEPES, 0.1% bovine serum albumin, pH 6.4 • Temperature 30 C
Thrombin also cleaves Z-Gly-Pro-Arg-p-phenylenediamine. The product could be detected by oxidative coupling with a-naphthol in the presence of hexacyanoferrate III. The result was a violet dye with Amax=565 nm. The Michaelis-Menten constant at pH 8 (buffer as for fluorescence measurement+2% Triton X100) was 6 μM.

For Z-Gly-Pro-Arg-p-phenylenediamine, the Michaelis-Menten constant is 6 µM.

The record behind these values is patent US20190264255A1, “Competition Test of an Enzyme Substrate with Internal Compensation for Enzyme Activity” (TECHNISCHE UNIVERSITÄT DARMSTADT, priority 2016, published 2019).
